Assay results: patent US6528456B2, “Herbicidal 2-pyrazolyl-6-aryloxypyri(mi)dines” (BASF Aktiengesellschaft, priority 1999, dated 2003)

Key:
Format in all cases: in vivo
Glycine max = test: Post-emergence test; conditions: 2-4 weeks after treatment
Protocol: To evaluate their herbicidal activity, compounds according to the invention are tested using a representative range of plants:
(§1) These acetone solutions are diluted with water and the resulting formulations applied at dosage levels equivalent of about 0.1 to 0. 4 kg per hectare of test compound per pot. After spraying the plants are placed on greenhouse benches and are cared for in the usual manner, commensurate with conventional greenhouse practices. From 2 to 4 weeks after treatment, the seedling plants are examined and rated according to the rating system provided above.

Echinochloa crus-galli = test: Pre-emergence test; conditions: 3 weeks after treatment
Protocol: (§2) To evaluate their herbicidal activity, compounds according to the invention are tested using a representative range of plants: ECHCG Echinochloa crus-galli The pre-emergence tests involve spraying a liquid formulation of the compound onto the soil in which the seeds of the plant species mentioned above has recently been sown. The soil used in the tests is a prepared horticultural loam. The formulations used in the tests are prepared from solutions of the test compounds in acetone containing 0.4% by weight of an alkylphenol/ethylene oxide condensate available under the trade mark TRITON X-155. These acetone solutions are diluted with water and the resulting formulations applied at dosage levels corresponding to 0.025 kg, 0.100 kg or 0.400 kg of active material per hectare in a volume equivalent to 900 litres per hectare. In these tests untreated sown soil are used as controls. From 2 to 4 weeks after treatment, the tests are terminated and each pot is examined and rated according to the rating system set forth below: [table]

Alopecurus myosuroides [1] = test: Post-emergence test; conditions: 2-4 weeks after treatment
Protocol: as §1, with “To evaluate their herbicidal activity, compounds according to the invention are tested using a representative range of plants: ALOMY Alopecurus myosuroides [table] […] These” for “These”

Alopecurus myosuroides [2] = test: Pre-emergence test; conditions: 3 weeks after treatment
Protocol: as §2, with “ALOMY Alopecurus myosuroides” for “ECHCG Echinochloa crus-galli”

Galium aparine = test: Pre-emergence test; conditions: 3 weeks after treatment
Protocol: as §2, with “GALAP Galium aparine” for “ECHCG Echinochloa crus-galli”

Ipomoea hederacea = test: Post-emergence test; conditions: 2-4 weeks after treatment
Protocol: as §1, with “To evaluate their herbicidal activity, compounds according to the invention are tested using a representative range of plants: IPHOE Ipomoea hederacea [table] […] These” for “These”

Zea mays = test: Pre-emergence test; conditions: 3 weeks after treatment
Protocol: as §2, with “ZEAMX Zea mays” for “ECHCG Echinochloa crus-galli”

Hordeum vulgare = test: Pre-emergence test; conditions: 3 weeks after treatment
Protocol: as §2, with “HORVW Hordeum vulgare” for “ECHCG Echinochloa crus-galli”

| SMILES | GLXMA herbicidal rating (Glycine max; 0.1 kg/ha) | GLXMA herbicidal rating (Glycine max; 0.4 kg/ha) | ECHCG herbicidal rating (Echinochloa crus-galli; 0.025 kg/ha) | ECHCG herbicidal rating (Echinochloa crus-galli; 0.100 kg/ha) | ECHCG herbicidal rating (Echinochloa crus-galli; 0.400 kg/ha) | ALOMY herbicidal rating (Alopecurus myosuroides [1]; 0.1 kg/ha) | ALOMY herbicidal rating (Alopecurus myosuroides [1]; 0.4 kg/ha) | ALOMY herbicidal rating (Alopecurus myosuroides [2]; 0.025 kg/ha) | ALOMY herbicidal rating (Alopecurus myosuroides [2]; 0.100 kg/ha) | ALOMY herbicidal rating (Alopecurus myosuroides [2]; 0.400 kg/ha) | GALAP herbicidal rating (Galium aparine; 0.025 kg/ha) | GALAP herbicidal rating (Galium aparine; 0.400 kg/ha) | IPOHE herbicidal rating (Ipomoea hederacea; 0.1 kg/ha) | IPOHE herbicidal rating (Ipomoea hederacea; 0.4 kg/ha) | ZEAMX herbicidal rating (Zea mays; 0.025 kg/ha) | ZEAMX herbicidal rating (Zea mays; 0.100 kg/ha) | ZEAMX herbicidal rating (Zea mays; 0.400 kg/ha) | HORVW herbicidal rating (Hordeum vulgare; 0.025 kg/ha) | HORVW herbicidal rating (Hordeum vulgare; 0.100 kg/ha) | HORVW herbicidal rating (Hordeum vulgare; 0.400 kg/ha) | further results |
| --- | --- | --- | --- | --- | --- | --- | --- | --- | --- | --- | --- | --- | --- | --- | --- | --- | --- | --- | --- | --- | --- |
| Cc1cc(Oc2cccc(C(F)(F)F)c2)nc(-c2cc(C(F)(F)F)nn2C)c1 [Example 63] | 3 (3 - Moderate effect) | 7 (7 - Good herbicidal effect) | 0 (0 - No effect) | 0 (0 - No effect) | 4 (4 - Injury) | 1 (1 - Trace effect) | 2 (2 - Slight effect) | 0 (0 - No effect) | 1 (1 - Trace effect) | 5 (5 - Definite injury) | 0 (0 - No effect) | 1 (1 - Trace effect) | 8 (8 - Approaching complete kill) | 8 (8 - Approaching complete kill) | 0 (0 - No effect) | 0 (0 - No effect) | 0 (0 - No effect) | 0 (0 - No effect) | 0 (0 - No effect) | 2 (2 - Slight effect) | GALAP herbicidal rating (Galium aparine; 0.100 kg/ha): 0 (0 - No effect) |
| Cc1cnc(-c2cc(C(F)(F)F)nn2C)nc1Oc1cc(C(F)(F)F)nn1C [Example 4, 2-(1-Methyl-3-trifluoromethylpyrazol-5-yl)-6-(1-methyl-3-trifluoromethylpyrazol-5-yloxy)-5-methylpyrimidine] | 4 (4 - Injury) | 6 (6 - Herbicidal effect) | 4 (4 - Injury) | 7 (7 - Good herbicidal effect) | 8 (8 - Approaching complete kill) | 5 (5 - Definite injury) | 7 (7 - Good herbicidal effect) | 2 (2 - Slight effect) | 6 (6 - Herbicidal effect) | 8 (8 - Approaching complete kill) | 1 (1 - Trace effect) | 8 (8 - Approaching complete kill) | 9 (9 - Complete kill) | 9 (9 - Complete kill) | 2 (2 - Slight effect) | 2 (2 - Slight effect) | 3 (3 - Moderate effect) | 2 (2 - Slight effect) | 4 (4 - Injury) | 5 (5 - Definite injury) |  |
| Cn1nc(C(F)(F)F)cc1Oc1cc(C#N)cc(-c2cc(C(F)(F)F)nn2C)n1 [Example 3, 4-Cyano-2-(1-methyl-3-trifluoromethylpyrazol-5-yloxy)-6-(1-methyl-3-trifluoromethylpyrazol-5-yl)pyridine] | 3 (3 - Moderate effect) | 4 (4 - Injury) | 2 (2 - Slight effect) | 4 (4 - Injury) | 4 (4 - Injury) | 3 (3 - Moderate effect) | 4 (4 - Injury) | 2 (2 - Slight effect) | 3 (3 - Moderate effect) | 5 (5 - Definite injury) | 1 (1 - Trace effect) | 8 (8 - Approaching complete kill) | 6 (6 - Herbicidal effect) | 8 (8 - Approaching complete kill) | 3 (3 - Moderate effect) | 3 (3 - Moderate effect) | 5 (5 - Definite injury) | 2 (2 - Slight effect) | 3 (3 - Moderate effect) | 5 (5 - Definite injury) | GALAP herbicidal rating (Galium aparine; 0.100 kg/ha): 4 (4 - Injury) |
